Reference: patent US9708293B2, “N-(pyridin-2-yl)pyrimidin-4-amine derivatives containing a sulfone group” (BAYER PHARMA AKTIENGESELLSCHAFT, priority 2012, dated 2017)

Columns and labels:
Caco-2 permeation assay = format: in vitro ADME; details: human, pH 7.2, Caco-2, test compound 2 μM
Experimental: 4. Caco-2 Permeation Assay:
Caco-2 cells (purchased from DSMZ Braunschweig, Germany) were seeded at a density of 4.5×10^4 cells per well on 24 well insert plates, 0.4 μm pore size, and grown for 15 days in DMEM medium supplemented with 10% fetal bovine serum, 1% GlutaMAX (100x, GIBCO), 100 U/mL penicillin, 100 μg/mL streptomycin (GIBCO) and 1% non essential amino acids (100×). Cells were maintained at 37° C. in a humified 5% CO2 atmosphere. Medium was changed every 2-3 day. Before running the permeation assay, the culture medium was replaced by a FCS-free hepes-carbonate transport buffer (pH 7.2). For assessment of monolayer integrity the transepithelial electrical resistance (TEER) was measured. Test compounds were predissolved in DMSO and added either to the apical or basolateral compartment in final concentration of 2 μM in transport buffer. Before and after 2h incubation at 37° C. samples were taken from both compartments. Analysis of compound content was done after precipitation with methanol by LC/MS/MS analysis. Permeability (Papp) was calculated in the apical to basolateral (A →B) and basolateral to apical (B→A) directions. The apparent permeability was calculated using following equation: Papp=(Vr/Po)(1/S)(P2/t)
Where Vr is the volume of medium in the receiver chamber, Po is the measured peak area or height of the test drug in the donor chamber at t=o, S the surface area of the monolayer, P2 is the measured peak area of the test drug in the acceptor chamber after 2h of incubation, and t is the incubation time. The efflux ratio basolateral (B) to apical (A) was calculated by dividing the Papp B-A by the Papp A-B. In addition the compound recovery was calculated. The following reference compounds were used for the classification of the permeability class: Antipyrine, Pyrazosin, Verapamil, Fluvastatin, Cimetidine, Ranitidine, Atenolol, Sulfasalazine.

MOLM13 cells = test: Proliferation assay, MOLM-13; format: cell-based; details: Homo sapiens, 72-hour exposure, Cell Titre-Glo, read-out: Inhibition of MOLM13 cell proliferation IC50
Experimental: Non-adherent MOLM-13 human acute myeloid leukemia cells (DSMZ ACC 554) were seeded at a density of 5,000 cells/well in a 96-well multititer plate in 100 μL of growth medium supplemented 10% fetal calf serum. After 24 hours, cell viability of one plate (zero-point plate) was determined with the Cell Titre-Glo Luminescent Cell Viability Assay (Promega), while 50 μL of test compound containing medium was added to the wells of the other plates (final concentrations in the range of 0.001-10 μM and DMSO controls; the final concentration of the solvent dimethyl sulfoxide was 0.5%). Cell viability was assessed after 72-hour exposure with the Cell Titre-Glo Luminescent Cell Viability Assay (Promega). IC50 values (inhibitory concentration at 50% of maximal effect) were determined by means of a 4 parameter fit on measurement data which were normalized to vehicle (DMSO) treated cells (=100%) and measurement readings taken immediately before compound exposure (=0%).

Row | Papp A→B at 2 h, 2 μM (Caco-2 permeation assay; 2h incubation, apical to basolateral, read-out: Papp A-B (Mari)) [×10⁻⁶ cm/s] | Papp B→A at 2 h, 2 μM (Caco-2 permeation assay; 2h incubation, basolateral to apical, read-out: Papp B-A (Mari)) [×10⁻⁶ cm/s] | efflux ratio at 2 h, 2 μM (Caco-2 permeation assay; Papp B-A / Papp A-B) | IC50 (MOLM13 cells) [nM] | Compound
1 | 17.8 | 19.1 | 1.1 | – | COc1cc(F)ccc1-c1cc(Nc2cc(CS(C)(=O)=O)ccn2)ncn1 [Example 1, 6-(4-Fluoro-2-methoxyphenyl)-N-{4-[(methylsulfonyl)methyl]pyridin-2-yl}pyrimidin-4-amine]
2 | – | – | – | 18 | COc1cc(F)ccc1-c1cc(Nc2cc(CS(C)(=O)=O)cc(C(F)(F)F)n2)ncn1 [Example 3, 6-(4-Fluoro-2-methoxyphenyl)-N-{4-[(methylsulfonyl)methyl]-6-(trifluoromethyl)pyridin-2-yl}pyrimidin-4-amine]
